Experimental data taken from US6737383B1, “Herbicidal oxadiazolidines” (priority 1999, dated 2004).

Assays:
[1] = test system: giant foxtail; assay: Test B pre/postemergence giant foxtail; format: in vivo, Setaria faberii; conditions: Preemergence, scale of 0 to 10 where 0 is no effect and 10 is complete control
In short: (§1)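 Response is a visual 0-to-10 score relative to untreated plants, where 0 means no effect and 10 means complete control, taken twelve to sixteen days after application. Treatments went onto soil at planting and onto foliage of 1- to 4-leaf plants, using a surfactant-containing non-phytotoxic solvent.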

[2] = test system: velvetleaf; assay: Test B pre/postemergence velvetleaf; format: in vivo, Abutilon theophrasti; conditions: Preemergence, scale of 0 to 10 where 0 is no effect and 10 is complete control
In short: as §1

[3] = test system: bedstraw; assay: Test B pre/postemergence bedstraw; format: in vivo, Galium aparine; conditions: Preemergence
In short: as §1

[4] = test system: blackgrass; assay: Test B pre/postemergence blackgrass; format: in vivo, Alopecurus myosuroides; conditions: Preemergence
In short: as §1

[5] = test system: rice; assay: Test B flood test rice; format: in vivo, Oryza sativa
In short: (§2)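 Read-out is a visual response score from 0 (no effect) to 10 (complete control), assigned by comparison with untreated controls. Treatment was applied at the 2-leaf stage, and plants stayed in the greenhouse for twelve to sixteen days before scoring.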

[6] = test system: sugar beet; assay: Test B pre/postemergence sugar beet; format: in vivo, Beta vulgaris; conditions: Preemergence, scale of 0 to 10 where 0 is no effect and 10 is complete control
In short: as §1

[7] = test system: duck salad; assay: Test B flood test duck salad; format: in vivo, Heteranthera limosa
In short: as §2

[8] = test system: pigweed; assay: Test B pre/postemergence pigweed; format: in vivo, Amaranthus retroflexus; conditions: Preemergence, scale of 0 to 10 where 0 is no effect and 10 is complete control
In short: as §1

[9] = test system: morningglory; assay: Test B pre/postemergence morningglory; format: in vivo, Ipomoea hederacea; conditions: Preemergence, scale of 0 to 10 where 0 is no effect and 10 is complete control
In short: as §1

[10] = test system: corn; assay: Test B pre/postemergence corn; format: in vivo, Zea mays; conditions: Preemergence
In short: as §1

[11] = test system: wild oat; assay: Test B pre/postemergence wild oat; format: in vivo, Avena fatua; conditions: Preemergence, Rate 125 g/ha; scale of 0 to 10 where 0 is no effect and 10 is complete control
In short: as §1

[12] = test system: soybean; assay: Test B pre/postemergence soybean; format: in vivo, Glycine max; conditions: Preemergence, scale of 0 to 10 where 0 is no effect and 10 is complete control
In short: as §1

[13] = test system: crabgrass; assay: Test B pre/postemergence crabgrass; format: in vivo, Digitaria sanguinalis; conditions: Preemergence
In short: as §1

[14] = test system: smallflower flatsedge; assay: Test B flood test smallflower flatsedge; format: in vivo, Cyperus difformis
In short: as §2

[15] = test system: wheat; assay: Test B pre/postemergence wheat; format: in vivo, Triticum aestivum; conditions: Preemergence, scale of 0 to 10 where 0 is no effect and 10 is complete control
In short: as §1

[16] = test system: purple nutsedge; assay: Test B pre/postemergence purple nutsedge; format: in vivo, Cyperus rotundus; conditions: Preemergence, scale of 0 to 10 where 0 is no effect and 10 is complete control
In short: as §1

[17] = test system: cocklebur; assay: Test B pre/postemergence cocklebur; format: in vivo, Xanthium strumarium; conditions: Preemergence
In short: as §1

[18] = test system: rape; assay: Test B pre/postemergence rape; format: in vivo, Brassica napus; conditions: Preemergence, scale of 0 to 10 where 0 is no effect and 10 is complete control
In short: as §1

[19] = test system: bamyardgrass; assay: Test B flood test barnyardgrass; format: in vivo, Echinochloa crus-galli
In short: as §2

[20] = test system: surinam grass; assay: Test B pre/postemergence surinam grass; format: in vivo, Brachiaria decumbens; conditions: Preemergence
In short: as §1

[21] = Rate 62 g/ha, scale of 0 to 10 where 0 is no effect and 10 is complete control
[22] = Rate 125 g/ha, scale of 0 to 10 where 0 is no effect and 10 is complete control
[23] = Rate 250 g/ha, scale 0 to 10 (0 no effect, 10 complete control)
[24] = Rate 500 g/ha, scale of 0 to 10 where 0 is no effect and 10 is complete control
[25] = Rate 62 g/ha, flood test species, Pre-emergence, visual evaluation after twelve to sixteen days
[26] = Rate 125 g/ha, under heading Pre-emergence, flood test species, visual evaluation after twelve to sixteen days
[27] = Rate 250 g/ha, Pre-emergence (flood test species), scale 0 to 10, 0 is no effect, 10 is complete control
[28] = Rate 500 g/ha, Pre-emergence section of Table B, 0 to 10 scale (0 no effect, 10 complete control)

CC(C)N(C(=O)n1oc(=O)n(C(C)C2CCC2)c1=O)c1ccc(F)cc1F (stereo not drawn) [Compound 702]
Giant foxtail plant response rating ([1]; Rate 62 g/ha): 10
Plant response rating, Giant foxtail ([1]; Rate 125 g/ha): 10
Velvetleaf plant response rating ([2]; Rate 62 g/ha): 0
Plant response rating, Velvetleaf ([2]; Rate 125 g/ha): 0
Bedstraw plant response rating [3, 21]: 0
Plant response rating, Bedstraw [3, 22]: 0
Plant response rating, Bedstraw [3, 23]: 0
Plant response rating, Bedstraw [3, 24]: 0
Blackgrass plant response rating [4, 21]: 2
Plant response rating, Blackgrass [4, 22]: 2
Plant response rating, Blackgrass [4, 23]: 9
Plant response rating, Blackgrass [4, 24]: 10
Plant response rating, Rice (0 to 10 scale, 0 is no effect, 10 is complete control) [5, 25]: 0
Rice plant response rating (0 to 10 scale, 0 is no effect, 10 is complete control) [5, 26]: 0
Rice plant response rating [5, 27]: 0
Rice plant response rating [5, 28]: 0
Sugarbeets plant response rating ([6]; Rate 62 g/ha): 0
Plant response rating, Sugarbeets ([6]; Rate 125 g/ha): 0
Plant response rating, Ducksalad (0 to 10 scale, 0 is no effect, 10 is complete control) [7, 25]: 0
Ducksalad plant response rating (0 to 10 scale, 0 is no effect, 10 is complete control) [7, 26]: 0
Ducksalad plant response rating [7, 27]: 0
Ducksalad plant response rating [7, 28]: 0
Redroot pigweed plant response rating ([8]; Rate 62 g/ha): 2
Plant response rating, Redroot pigweed ([8]; Rate 125 g/ha): 5
Morningglory plant response rating ([9]; Rate 62 g/ha): 0
Plant response rating, Morningglory ([9]; Rate 125 g/ha): 0
Corn plant response rating [10, 21]: 0
Plant response rating, Corn [10, 22]: 0
Plant response rating, Corn [10, 23]: 0
Plant response rating, Wild oats [11]: 0
Soybean plant response rating ([12]; Rate 62 g/ha): 0
Plant response rating, Soybean ([12]; Rate 125 g/ha): 0
Crabgrass plant response rating [13, 21]: 9
Plant response rating, Crabgrass [13, 22]: 10
Plant response rating, Crabgrass [13, 23]: 10
Plant response rating, S. Flatsedge (0 to 10 scale, 0 is no effect, 10 is complete control) [14, 25]: 0
S. Flatsedge plant response rating (0 to 10 scale, 0 is no effect, 10 is complete control) [14, 26]: 0
S. Flatsedge plant response rating [14, 27]: 0
S. Flatsedge plant response rating [14, 28]: 0
Wheat plant response rating ([15]; Rate 62 g/ha): 0
Plant response rating, Wheat ([15]; Rate 125 g/ha): 0
Nutsedge plant response rating ([16]; Rate 62 g/ha): 0
Plant response rating, Nutsedge ([16]; Rate 125 g/ha): 0
Cocklebur plant response rating [17, 21]: 0
Plant response rating, Cocklebur [17, 22]: 0
Plant response rating, Cocklebur [17, 23]: 0
Plant response rating, Cocklebur [17, 24]: 0
Rape plant response rating ([18]; Rate 62 g/ha): 0
Plant response rating, Rape ([18]; Rate 125 g/ha): 0
Plant response rating, Barnyardgrass (0 to 10 scale, 0 is no effect, 10 is complete control) [19, 25]: 0
Barnyardgrass plant response rating (0 to 10 scale, 0 is no effect, 10 is complete control) [19, 26]: 0
Barnyardgrass plant response rating [19, 27]: 0
Barnyardgrass plant response rating [19, 28]: 0
B. signalgrass plant response rating [20, 21]: 0
Plant response rating, B. signalgrass [20, 22]: 2
Plant response rating, B. signalgrass [20, 23]: 2
Plant response rating, B. signalgrass [20, 24]: 8
